These results are taken from patent publication US20150004134A1, “TREATMENT OF CANCER WITH HETEROCYCLIC INHIBITORS OF GLUTAMINASE” (Calithera Biosciences, Inc., priority 2012, published 2015).

Where two headings read alike, the source gives them in different places.

Assay [1] has as its target T1, recombinant form of Glutaminase 1 (GAC) (Homo sapiens, UniProt O94925).
T1 sequence (O94925 137-598 isoform O94925-3 limits assumed): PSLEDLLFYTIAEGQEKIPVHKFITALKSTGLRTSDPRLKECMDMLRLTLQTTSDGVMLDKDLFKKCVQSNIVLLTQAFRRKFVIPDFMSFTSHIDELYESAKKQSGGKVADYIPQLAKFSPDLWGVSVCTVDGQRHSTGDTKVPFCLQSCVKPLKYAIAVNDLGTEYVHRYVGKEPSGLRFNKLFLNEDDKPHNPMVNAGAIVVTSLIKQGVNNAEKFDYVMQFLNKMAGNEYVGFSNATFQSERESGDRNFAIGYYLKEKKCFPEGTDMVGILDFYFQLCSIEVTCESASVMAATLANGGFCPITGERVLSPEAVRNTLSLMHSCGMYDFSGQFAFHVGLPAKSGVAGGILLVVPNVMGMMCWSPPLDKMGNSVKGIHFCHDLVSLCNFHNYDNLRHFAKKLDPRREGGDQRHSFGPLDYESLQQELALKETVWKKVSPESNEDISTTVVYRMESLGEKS
The assay can be described thus: Recombinant Enzyme Assay - Time Dependence (60 min preincubation). The class given is biochemical. As for the experimental part:
The enzyme/compound mix was sealed with sealing foil (USA Scientific) and allowed to incubate, with mild agitation, for 60 minutes at 20° C. Enzymatic reaction was started with the addition of 50 μL of substrate solution (50 mM Tris-HCl pH 8.0, 0.2 mM EDTA, 150 mM K2HPO4, 0.1 mg/ml BSA, 1 mM DTT, 20 mM L-glutamine, 2 mM NAD^+, and 10 ppm antifoam) and read in a Molecular Devices M5 plate reader at 20° C. The plate reader was configured to read absorbance (=340 nm) in kinetic mode for 15 minutes. Data was recorded as milli-absorbance units per minute and slopes were compared to a control compound and a DMSO-only control on the same plate. Compounds with slopes less than the DMSO control were considered inhibitors and plate variability was assessed using the control compound.

Assay [2] concerns P493-6 (myc "on") cells. Description: Cell Proliferation Assay. The class given is cell-based. The note with it: P493-6, 72 h, read-out: Cell prolif P493 72 h IC50, P493-6 cells, 72 h. The gist of the method:
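P493-6 cells with myc on, 10,000 per well in RPMI/10% FBS, exposed to serially diluted compound (0.5% DMSO final) for 72 h at 37 °C, 5% CO2. Antiproliferative effect read by Cell Titer Glo luminescence or Viacount FACS viability count.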

Where [3] appears, read: read-out: GAC Delta N2 IC50 60 min preinc.

Turning to `O=C(Cc1cccc(OCCO)c1)Nc1ccc(CCCCc2nnc(NC(=O)Cc3ccccc3)s2)nn1` [Compound 502], the IC50 in assay [1] (setting [3]) is 7 nM; in assay [2], 75 nM.

On to `O=C(Cc1ccccc1)Nc1ccc(CCCCc2nnc(NC(=O)Cc3cccs3)s2)nn1` [Compound 503], for which the values for the IC50 in assay [1] (setting [3]) and in assay [2] were 8 nM and 150 nM, respectively.

With `O=C(Cc1ccccc1)Nc1ccc(CCCCc2nnc(NC(=O)Cc3cccc(OC(CO)CO)c3)s2)nn1` [Compound 505], the values for the IC50 in assay [1] (setting [3]) and in assay [2] were 8 nM and 240 nM, respectively.

As to `O=C(Cc1ccccc1)Nc1ccc(CCCCc2nnc(NC(=O)Cc3cccc(OC4COC(c5ccccc5)OC4)c3)s2)nn1` (stereo not shown) [Compound 506], the IC50 stood at 10 nM in assay [1] (setting [3]) and 170 nM in assay [2].

Turning to `CC(C)(C)OC(=O)NCc1cccc(CC(=O)Nc2nnc(CCCCc3ccc(NC(=O)C(C)(C)C)nn3)s2)c1` [Compound 510], the IC50 in assay [1] (setting [3]) was 22 nM; in assay [2], 94 nM.

Regarding `CC(C)(O)Cc1cccc(CC(=O)Nc2nnc(CCCCc3ccc(NC(=O)Cc4ccccc4)nn3)s2)c1` [Compound 513], the results for the IC50 in assay [1] and in assay [2] were 7 nM and 22 nM, respectively.

For the compound `CC(C)(O)CNC(=O)Cc1cccc(CC(=O)Nc2nnc(CCCCc3ccc(NC(=O)Cc4ccccc4)nn3)s2)c1` [Compound 514], the IC50 came to 9 nM in assay [1] (setting [3]) and 63 nM in assay [2].

Consider `CCCCNC(=O)Cc1cccc(CC(=O)Nc2ccc(CCCCc3nnc(NC(=O)Cc4ccccc4)s3)nn2)c1` [Compound 516], for which the IC50 in assay [1] came out at 3 nM; in assay [2], 28 nM.

As to `CC(C)CNC(=O)Cc1cccc(CC(=O)Nc2ccc(CCCCc3nnc(NC(=O)Cc4ccccc4)s3)nn2)c1` [Compound 517], the results for the IC50 in assay [1] and in assay [2] were 3 nM and 46 nM, respectively.

Turning to `Cc1nccn1Cc1cccc(CC(=O)Nc2ccc(CCCCc3nnc(NC(=O)Cc4ccccc4)s3)nn2)c1` [Compound 518], the IC50 was found to be 4 nM in assay [1] and 63 nM in assay [2].

For `O=C(Cc1ccccc1)Nc1ccc(CCCCc2nnc(NC(=O)Cc3cccc(OCCCO)c3)s2)nn1` [Compound 519], the IC50 in assay [1] (setting [3]) was 9 nM; in assay [2], 59 nM.

On to `O=C(Cc1ccccc1F)Nc1ccc(CCCCc2nnc(NC(=O)Cc3ccccc3)s2)nn1` [Compound 520], for which the IC50 amounted to 7 nM in assay [1] (setting [3]) and 56 nM in assay [2].

Take `O=C(Cc1ccccc1Cl)Nc1ccc(CCCCc2nnc(NC(=O)Cc3ccccc3)s2)nn1` [Compound 521]: the IC50 in assay [1] (setting [3]) was determined as 6 nM; in assay [2], 52 nM.

For the compound `O=C(Cc1ccccc1)Nc1ccc(CCCCc2nnc(NC(=O)Cc3ccccc3Cl)s2)nn1` [Compound 522], the figures for the IC50 in assay [1] (setting [3]) and in assay [2] were 23 nM and 60 nM, respectively.

In the case of `Cc1ccccc1CC(=O)Nc1nnc(CCCCc2ccc(NC(=O)Cc3ccccc3)nn2)s1` [Compound 523], the IC50 in assay [1] (setting [3]) was 21 nM; in assay [2], 55 nM.

On to `CC(C)(C)OC(=O)NCc1cccc(CC(=O)Nc2nnc(CCCCc3ccc(NC(=O)C(C)(CO)CO)nn3)s2)c1` [Compound 530], for which the IC50 was found to be 55 nM in assay [1] (setting [3]) and 280 nM in assay [2].

Take `COc1ccccc1CC(=O)Nc1nnc(CCCCc2ccc(NC(=O)Cc3ccccc3F)nn2)s1` [Compound 532]: the IC50 in assay [1] (setting [3]) came to 6 nM; in assay [2], 59 nM.

For `O=C(Cc1ccccc1)Nc1ccc(CCCCc2nnc(NC(=O)Cc3ccc(F)c(O)c3)s2)nn1` [Compound 538], the IC50 in assay [1] (setting [3]) was 4 nM; in assay [2], 30 nM.

In the case of `O=C(Cc1cccc(OCCCO)c1)Nc1ccc(CCCCc2nnc(NC(=O)Cc3ccccc3)s2)nn1` [Compound 539], the IC50 in assay [1] (setting [3]) is 9 nM; in assay [2], 45 nM.

On to `O=C(Cc1ccccc1)Nc1ccc(CCCCc2nnc(NC(=O)Cc3ccc(F)c(OCCO)c3)s2)nn1` [Compound 540], for which the IC50 in assay [1] (setting [3]) came out at 7 nM; in assay [2], 50 nM.

`CC(C)(C)NC(=O)Cc1cccc(CC(=O)Nc2ccc(CCCCc3nnc(NC(=O)Cc4ccccc4)s3)nn2)c1` [Compound 542]: the IC50 in assay [1] (setting [3]) was found to be 4 nM; in assay [2], 43 nM.

On to `CC(NC(=O)OC(C)(C)C)c1cccc(CC(=O)Nc2ccc(CCCCc3nnc(NC(=O)Cc4ccccc4)s3)nn2)c1` (stereo not shown) [Compound 543], for which the figures for the IC50 in assay [1] (setting [3]) and in assay [2] were 4 nM and 5 nM, respectively.

Consider `COc1ccc(CC(=O)Nc2nnc(CCCCc3ccc(NC(=O)Cc4ccccc4)nn3)s2)cc1F` [Compound 544], for which the IC50 in assay [1] (setting [3]) came to 6 nM; in assay [2] it was 44 nM.

As for `O=C(Cc1ccccc1)Nc1ccc(CCCCc2nnc(NC(=O)Cc3cccc(C(F)(F)F)c3)s2)nn1` [Compound 546], the IC50 in assay [1] (setting [3]) is 5 nM; in assay [2], 27 nM.

Regarding `O=C(Cc1ccccc1)Nc1ccc(CCCCc2nnc(NC(=O)Cc3ccc(Cl)c(Cl)c3)s2)nn1` [Compound 548], the IC50 turned out to be 10 nM in assay [1] (setting [3]) and 85 nM in assay [2].

Take `O=C(Cc1ccccc1)Nc1ccc(CCCCc2nnc(NC(=O)Cc3ccc(F)c(Cl)c3)s2)nn1` [Compound 549]: the IC50 in assay [1] (setting [3]) is 6 nM; in assay [2] it was 45 nM.

Turning to `COc1ccc(CC(=O)Nc2nnc(CCCCc3ccc(NC(=O)Cc4ccccc4)nn3)s2)cc1C` [Compound 550], the values for the IC50 in assay [1] (setting [3]) and in assay [2] were 5 nM and 36 nM, respectively.

`CN1CCC(Oc2cccc(CC(=O)Nc3nnc(CCCCc4ccc(NC(=O)Cc5ccccc5)nn4)s3)c2)CC1` [Compound 551]: the IC50 stood at 10 nM in assay [1] (setting [3]) and 127 nM in assay [2].

On to `COC(=O)NCc1cccc(CC(=O)Nc2ccc(CCCCc3nnc(NC(=O)C(C)c4ccccc4)s3)nn2)c1` (stereo not shown) [Compound 553], for which the IC50 is 5 nM in assay [1] (setting [3]) and 19 nM in assay [2].

With `CCOC(=O)NCc1cccc(CC(=O)Nc2ccc(CCCCc3nnc(NC(=O)C(C)c4ccccc4)s3)nn2)c1` (stereo not shown) [Compound 555], the IC50 in assay [1] (setting [3]) is 4 nM; in assay [2], 10 nM.

For the compound `CCOc1cc(CC(=O)Nc2nnc(CCCCc3ccc(NC(=O)Cc4ccccc4)nn3)s2)ccc1O` [Compound 556], the IC50 in assay [1] (setting [3]) came to 5 nM; in assay [2], 120 nM.

On to `CC(N)c1cccc(CC(=O)Nc2nnc(CCCCc3ccc(NC(=O)Cc4ccccc4)nn3)s2)c1` (stereo not shown) [Compound 559], for which the IC50 in assay [1] (setting [3]) worked out at 12 nM; in assay [2], 66 nM.

On to `COC(=O)NC(C)c1cccc(CC(=O)Nc2nnc(CCCCc3ccc(NC(=O)Cc4ccccc4)nn3)s2)c1` (stereo not shown) [Compound 561], for which the IC50 in assay [1] (setting [3]) and in assay [2] was 4 nM throughout.

As for `CCOC(=O)NC(C)c1cccc(CC(=O)Nc2nnc(CCCCc3ccc(NC(=O)Cc4ccccc4)nn3)s2)c1` (stereo not shown) [Compound 562], the values for the IC50 in assay [1] (setting [3]) and in assay [2] were 3 nM and 2 nM, respectively.

For the compound `CC(C)(C)C(=O)NCc1cccc(CC(=O)Nc2nnc(CCCCc3ccc(NC(=O)Cc4ccccc4)nn3)s2)c1` [Compound 564], the IC50 in assay [1] (setting [3]) came out at 4 nM; in assay [2], 2 nM.

As for `O=C(Cc1ccccc1Cl)Nc1ccc(CCCCc2nnc(NC(=O)Cc3ccccc3Cl)s2)nn1` [Compound 565], the IC50 in assay [1] (setting [3]) is 5 nM; in assay [2], 13 nM.

Take `COC(=O)NCc1cccc(CC(=O)Nc2ccc(CCCCc3nnc(NC(=O)Cc4cccc(CNC(=O)OC)c4)s3)nn2)c1` [Compound 573]: the IC50 in assay [1] (setting [3]) is 4 nM; in assay [2] it was 15 nM.

As to `CCC(O)C(=O)NCc1cccc(CC(=O)Nc2nnc(CCCCc3ccc(NC(=O)Cc4ccccc4)nn3)s2)c1` (stereo not shown) [Compound 575], the IC50 in assay [1] (setting [3]) came to 7 nM; in assay [2], 40 nM.

`CC(C(=O)NCc1cccc(CC(=O)Nc2nnc(CCCCc3ccc(NC(=O)Cc4ccccc4)nn3)s2)c1)c1ccc(O)cc1` (stereo not shown) [Compound 576]: the IC50 came to 3 nM in assay [1] (setting [3]) and 13 nM in assay [2].

Regarding `O=C(Cc1ccccc1)Nc1ccc(CCCCc2nnc(NC(=O)Cc3cccc(CNC(=O)C(O)C(F)(F)F)c3)s2)nn1` (stereo not shown) [Compound 577], the IC50 in assay [1] (setting [3]) was 4 nM; in assay [2] it was 34 nM.

Turning to `O=C(CC(O)C(F)(F)F)NCc1cccc(CC(=O)Nc2nnc(CCCCc3ccc(NC(=O)Cc4ccccc4)nn3)s2)c1` (stereo not shown) [Compound 578], the IC50 amounted to 4 nM in assay [1] (setting [3]) and 22 nM in assay [2].

For the compound `CC(O)(CC(=O)NCc1cccc(CC(=O)Nc2nnc(CCCCc3ccc(NC(=O)Cc4ccccc4)nn3)s2)c1)C(F)(F)F` (stereo not shown) [Compound 579], the IC50 in assay [1] (setting [3]) is 4 nM; in assay [2], 9 nM.

`CC1(C)OCC(C)(C(=O)NCc2cccc(CC(=O)Nc3nnc(CCCCc4ccc(NC(=O)Cc5ccccc5)nn4)s3)c2)CO1` [Compound 580]: the IC50 stood at 5 nM in assay [1] (setting [3]) and 13 nM in assay [2].

Take `CC(CO)(CO)C(=O)NCc1cccc(CC(=O)Nc2nnc(CCCCc3ccc(NC(=O)Cc4ccccc4)nn3)s2)c1` [Compound 581]: the IC50 in assay [1] (setting [3]) amounted to 11 nM; in assay [2], 240 nM.
